Laboratory results taken from US10961202B2, “Bis-benzimidazole compounds and methods of using the same” (THE SCRIPPS RESEARCH INSTITUTE, priority 2017, dated 2021).

Test system: r(CUG)12-MBNL1 complex
Assay: Inhibition of the r(CUG)12-MBNL1 complex measured by TR-FRET
Assay type: biochemical
Settings: 80 nM RNA, 60 nM MBNL1-His6

Row | SMILES | IC50 (Table M) [µM] | IC50 (Table L) [µM]
1 | CN(C)CCCOc1ccc2nc(-c3ccc(-c4nc5ccc(C(=O)O)cc5[nH]4)cc3)[nH]c2c1 [Compound 250, 2-(4-(6-(3-(dimethylamino)propoxy)-1H-benzo[d]imidazol-2-yl)phenyl)-1H-benzo[d]imidazole-6-carboxylic acid] | > 200 | –
2 | NCc1ccc(Oc2ccc3nc(-c4ccc(-c5nc6ccc(Oc7ccc(CN)cc7)cc6[nH]5)cc4)[nH]c3c2)cc1 [Compound 236, (((2,2′-(1,4-phenylene)bis(1H-benzo[d]imidazole-6,2-diyl))bis(oxy))bis(4,1-phenylene))dimethanamine] | 62.1 | –
3 | NCC(=O)NCC(=O)NCc1cn(CCN2CCN(CCNC(=O)c3ccc4nc(-c5ccc(-c6nc7ccc(C(=O)NCCN8CCCCC8)cc7[nH]6)cc5)[nH]c4c3)CC2)nn1 [Compound 178, N-(2-(4-(2-(4-((2-(2-aminoacetamido)acetamido)methyl)-1H-1,2,3-triazol-1-yl)ethyl)piperazin-1-yl)ethyl)-2-(4-(6-((2-(piperidin-1-yl)ethyl)carbamoyl)-1H-benzo[d]imidazol-2-yl)phenyl)-1H-benzo[d]imidazole-6-carboxamide] | 7.9 | –
4 | N#Cc1ccc2nc(-c3ccc(-c4nc5ccc(C6=NCCN6)cc5[nH]4)cc3)[nH]c2c1 [Compound 13, 2-(4-(6-(4,5-dihydro-1H-imidazol-2-yl)-1H-benzo[d]imidazol-2-yl)phenyl)-1H-benzo[d]imidazole-6-carbonitrile] | – | 48
5 | COCCNC(=O)c1ccc2nc(-c3ccc(-c4nc5ccc(C(=O)NCCOC)cc5[nH]4)cc3)[nH]c2c1 [Compound 53, 2,2′-(1,4-phenylene)bis(N-(2-methoxyethyl)-1H-benzo[d]imidazole-6-carboxamide)] | – | > 200
6 | CN(C)CCNC(=O)c1ccc2nc(-c3ccc(-c4nc5ccc(C(=O)NCCNC(=O)OC(C)(C)C)cc5[nH]4)cc3)[nH]c2c1 [Compound 49, tert-butyl (2-(2-(4-(6-((2-(dimethylamino)ethyl)carbamoyl)-1H-benzo[d]imidazol-2-yl)phenyl)-1H-benzo[d]imidazole-6-carboxamido)ethyl)carbamate] | – | 22.1
7 | Nc1ccc2nc(-c3ccc(-c4nc5ccc(N)cc5[nH]4)cc3)[nH]c2c1 [Compound 2, 2,2′-(1,4-phenylene)bis(1H-benzo[d]imidazol-6-amine)] | – | 197
8 | CN(C)CCNC(=O)c1ccc(-c2nc3cc(-c4ccc5[nH]c(-c6ccc(C(=O)NCCCCNC(=O)c7ccc(-c8nc9cc(-c%10ccc%11[nH]c(-c%12ccc(C(=O)NCCN(C)C)cc%12)nc%11c%10)ccc9[nH]8)cc7)cc6)nc5c4)ccc3[nH]2)cc1 [Compound 420] | 6.32 | –
9 | c1cc2nc(-c3ccc(-c4nc5ccc(OCCN6CCCCC6)cc5[nH]4)cc3)[nH]c2cc1OCCN1CCCCC1 [Compound 191] | 100 | –
10 | Oc1ccc2nc(-c3ccc(-c4nc5ccc(O)cc5[nH]4)cc3)[nH]c2c1 [Compound 190, 2,2′-(1,4-phenylene)bis(1H-benzo[d]imidazol-6-ol)] | 179 | –
11 | CN(C)Cc1ccc(COc2ccc3nc(-c4ccc(-c5nc6ccc(OCc7ccc(CN(C)C)cc7)cc6[nH]5)cc4)[nH]c3c2)cc1 [Compound 217] | 51.9 | –
12 | CN(C)CCNC(=O)c1ccc(-c2nc3cc(-c4ccc5[nH]c(-c6ccc(C(=O)NCCOCCOCCN=[N+]=[N-])cc6)nc5c4)ccc3[nH]2)cc1 [Compound 398] | 14.7 | –
13 | CN(C)CCNC(=O)c1ccc(-c2nc3ccc(-c4ccc5nc(-c6ccc(C(=O)N7CCC(C8CCN(C(=O)c9ccc(-c%10nc%11ccc(-c%12ccc%13nc(-c%14ccc(C(=O)NCCN(C)C)cc%14)[nH]c%13c%12)cc%11[nH]%10)cc9)CC8)CC7)cc6)[nH]c5c4)cc3[nH]2)cc1 [Compound 439] | 10.9 | –
14 | CN(C)CCCOc1ccc2nc(-c3cnc(-c4nc5ccc(OCCCN(C)C)cc5[nH]4)nc3)[nH]c2c1 [Compound 317] | 21.4 | –
15 | CN(C)CCCOc1ccc2nc(-c3ccc(-c4nc5ccc(OCCCN(C)C)c(F)c5[nH]4)cc3)[nH]c2c1F [Compound 280] | 31.3 | –
16 | CN(C)CCCOc1cccc2nc(-c3ccc(-c4nc5cccc(O)c5[nH]4)cc3)[nH]c12 [Compound 216, 2-(4-(7-(3-(dimethylamino)propoxy)-1H-benzo[d]imidazol-2-yl)phenyl)-1H-benzo[d]imidazol-7-ol] | 125 | –
17 | Cn1c(-c2ccc(N)cc2)nc2cc(-c3ccc4nc(-c5ccc(N)cc5)n(C)c4c3)ccc21 [Compound 121, 1,3′-dimethyl-2,2′-bis(4-aminophenyl)-1H,3′H-5,5′-bibenzimidazole] | – | > 200
18 | CCN(CC)CCCOc1ccc2nc(-c3ccc(-c4nc5ccc(OCCCN(CC)CC)cc5[nH]4)cc3)[nH]c2c1 [Compound 187] | 58.9 | –
19 | CN(C)CC(CN(C)C)Oc1ccc2nc(-c3ccc(-c4nc5ccc(OC(CN(C)C)CN(C)C)cc5[nH]4)cc3)[nH]c2c1 [Compound 184] | > 200 | –
20 | CN(C)CCNC(=O)c1ccc(-c2nc3cc(-c4ccc5[nH]c(-c6ccc(OCCCC#N)cc6)nc5c4)ccc3[nH]2)cc1 [Compound 394] | 19 | –

Row | SMILES | IC50 (Table M) [µM] | IC50 (Table L) [µM]
21 | Oc1ccc2nc(-c3ccc(-c4nc5ccc(OCCN6CCCCC6)cc5[nH]4)cc3)[nH]c2c1 [Compound 195] | 104 | –
22 | CN(C)CCCSc1ccc(-c2nc3cc(-c4ccc5[nH]c(-c6ccc(C(=O)NCCN(C)C)cc6)nc5c4)ccc3[nH]2)cc1 [Compound 387] | 8.86 | –
23 | CNCCNC(=O)c1ccc2nc(-c3ccc(-c4nc5ccc(C(=O)NCCN(C)C)cc5[nH]4)cc3)[nH]c2c1 [Compound 27, N-(2-(dimethylamino)ethyl)-2-(4-(6-((2-(methylamino)ethyl)carbamoyl)-1H-benzo[d]imidazol-2-yl)phenyl)-1H-benzo[d]imidazole-6-carboxamide] | – | 12.3
24 | CN(C)CCNC(=O)c1ccc(-c2nc3ccc(-c4ccc5nc(-c6ccc(C(=O)N7CCC(CCCC8CCN(C(=O)c9ccc(-c%10nc%11ccc(-c%12ccc%13nc(-c%14ccc(C(=O)NCCN(C)C)cc%14)[nH]c%13c%12)cc%11[nH]%10)cc9)CC8)CC7)cc6)[nH]c5c4)cc3[nH]2)cc1 [Compound 427] | 3.23 | –
25 | CN(C)CCCOc1ccc2nc(-c3ccc(-c4nc5ccc(OCCCN=[N+]=[N-])cc5[nH]4)cc3)[nH]c2c1 [Compound 235, 3-((2-(4-(6-(3-azidopropoxy)-1H-benzo[d]imidazol-2-yl)phenyl)-1H-benzo[d]imidazol-6-yl)oxy)-N,N-dimethylpropan-1-amine] | 78.2 | –
26 | CCOC(CNC(=N)Nc1ccc2nc(-c3ccc(-c4nc5ccc(NC(=N)NCC(OCC)OCC)cc5[nH]4)cc3)[nH]c2c1)OCC [Compound 18, 1,1′-(2,2′-(1,4-phenylene)bis(1H-benzo[d]imidazole-5,2-diyl))bis(3-(2,2-diethoxyethyl)guanidine)] | – | 35
27 | CN(C)CCNC(=O)c1ccc2nc(-c3ccc(-c4nc5ccc(C(=O)NCCN)cc5[nH]4)cc3)[nH]c2c1 [Compound 29, N-(2-aminoethyl)-2-(4-(6-((2-(dimethylamino)ethyl)carbamoyl)-1H-benzo[d]imidazol-2-yl)phenyl)-1H-benzo[d]imidazole-6-carboxamide] | – | 9.6
28 | N#Cc1ccc(-c2nc3cc(-c4ccc5[nH]c(-c6ccc(C#N)cc6)nc5c4)ccc3[nH]2)cc1 [Compound 100] | – | 6.2
29 | OCCCCOc1ccc2nc(-c3ccc(-c4nc5ccc(OCCCCO)cc5[nH]4)cc3)[nH]c2c1 [Compound 225] | 154 | –
30 | C[C@@H](C(=O)N(C)[C@@H](C)C(=O)N(C)[C@@H](C)C(=O)N(C)[C@@H](C)C(=O)N(C)[C@@H](C)C(=O)N(CCCCN(C)C(=O)c1ccc(-c2nc3cc(-c4ccc5[nH]c(-c6ccc(C(=O)NCCN(C)C)cc6)nc5c4)ccc3[nH]2)cc1)CC(N)=O)N(C)C(=O)c1ccc(-c2nc3cc(-c4ccc5[nH]c(-c6ccc(C(=O)NCCN(C)C)cc6)nc5c4)ccc3[nH]2)cc1 [Compound 417] | 9.24 | –
31 | CN(C)CCNCc1ccc2nc(-c3ccc(-c4nc5ccc(CNCCN(C)C)cc5[nH]4)cc3)[nH]c2c1 [Compound 61] | – | > 200
32 | NCCNC(=O)c1ccc2nc(-c3ccc(-c4nc5ccc(C(=O)NCCN)cc5[nH]4)cc3)[nH]c2c1 [Compound 30, 2,2′-(1,4-phenylene)bis(N-(2-aminoethyl)-1H-benzo[d]imidazole-6-carboxamide)] | – | 18.3
33 | C[N+](C)(C)CCNC(=O)c1ccc2nc(-c3ccc(-c4nc5ccc(C(=O)NCC[N+](C)(C)C)cc5[nH]4)cc3)[nH]c2c1 [Compound 31, 2,2′-((2,2′-(1,4-phenylene)bis(1H-benzo[d]imidazole-6,6′-carbonyl))bis(azanediyl))bis(N,N,N-trimethylethanaminium) chloride] | – | 15.4
34 | C[C@@H](C(=O)N(C)[C@@H](C)C(=O)N(C)[C@@H](C)C(=O)N(C)[C@@H](C)C(=O)N(CCCCN(C)C(=O)c1ccc(-c2nc3cc(-c4ccc5[nH]c(-c6ccc(C(=O)NCCN(C)C)cc6)nc5c4)ccc3[nH]2)cc1)CC(N)=O)N(C)C(=O)c1ccc(-c2nc3cc(-c4ccc5[nH]c(-c6ccc(C(=O)NCCN(C)C)cc6)nc5c4)ccc3[nH]2)cc1 [Compound 416] | 39 | –
35 | CN(C)CCCCCOc1ccc2nc(-c3ccc(-c4nc5ccc(O)cc5[nH]4)cc3)[nH]c2c1 [Compound 193] | 36.7 | –
36 | O=C(NCCN1CCCC1)c1ccc2nc(-c3ccc(-c4nc5ccc(C(=O)NCCN6CCCC6)cc5[nH]4)cc3)[nH]c2c1 [Compound 40, 2,2′-(1,4-phenylene)bis(N-(2-(pyrrolidin-1-yl)ethyl)-1H-benzo[d]imidazole-6-carboxamide)] | – | 7
37 | CN(C)CCNC(=O)c1ccc(-c2nc3cc(-c4ccc5[nH]c(-c6ccc(C(=O)NCCCN=[N+]=[N-])cc6)nc5c4)ccc3[nH]2)cc1 [Compound 399] | 9.6 | –
38 | C[C@H](CNC(=O)c1ccc(-c2nc3ccc(-c4ccc5nc(-c6ccc(C(=O)NCCN(C)C)cc6)[nH]c5c4)cc3[nH]2)cc1)NC(=O)c1ccc(-c2nc3ccc(-c4ccc5nc(-c6ccc(C(=O)NCCN(C)C)cc6)[nH]c5c4)cc3[nH]2)cc1 [Compound 441] | 66 | –
39 | CN(C)CCCOc1ccc2nc(-c3ccc(-c4nc5ccc(OCCCC(=O)O)cc5[nH]4)cc3)[nH]c2c1 [Compound 248, 4-((2-(4-(5-(3-(dimethylamino)propoxy)-1H-benzo[d]imidazol-2-yl)phenyl)-1H-benzo[d]imidazol-5-yl)oxy)butanoic acid] | > 200 | –
